Measured values from PubChem BioAssay AID504726 (Broad Institute, 2011).
Activity calls are given as the source filed them.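 How the source made its calls: active means fitted half-maximal concentration for a cytotoxic signal drop no higher than ten times the top valid dose tested; inconclusive means flat curve between -70 and -30 percent, or an unreliable fit; inactive means flat within 30 percent, signal rise, or potency beyond limit.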

Assay: HeLa cell cytotoxicity, dose response, cytotoxicity control, 24 h, cherry-picked samples (AID 504726);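 further: 0% = DMSO neutral controls and -100% = mitoxantrone positive controls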
Settings: HeLa viability, CellTiter-Glo ATP luminescence, 24 h; at 35 µM (top of the series)

| SMILES | activity change, negative = cytotoxicity |
| --- | --- |
| COc1ccc(-c2cc(C(=O)N(C)CCc3ccc(OC)c(OC)c3)c3ccccc3n2)cc1 | -7.16% (inactive) |
| O=C(O)c1ccccc1NS(=O)(=O)c1ccc(N/N=C/c2ccc(O)c(O)c2)c([N+](=O)[O-])c1 | -10.9% (inactive) |
| O=C(Cn1c2ccccc2c2nc3n(c(=O)c21)CCS3)Nc1ccccc1C(F)(F)F | -2.68% (inactive) |
| O=C(O)CC1(CC(=O)NCc2ccncc2)CCCCC1 | -9.28% (inactive) |
| COc1ccc(C(=O)N/N=C/c2ccc(OC)c(COc3ccccc3)c2)cc1 | -5.44% (inactive) |
| CCOC(=O)C1Nc2ccccc2C2C(O)C(O)CC12 (stereo not drawn) | 7.37% (inactive) |
| COc1ccc(NS(=O)(=O)c2ccc3c(c2)[C@H]2C=CC[C@H]2[C@@H](c2ccc(C(=O)O)cc2)N3)cc1 | -3.11% (inactive) |
| O=C(O)c1cccc(-n2cccc2/C=C2/NC(=O)N(c3ccc(Cl)cc3)C2=O)c1 | 0.035% (inactive) |
| COc1ccccc1CNC(=O)CCS(=O)(=O)c1cccs1 | 4.31% (inactive) |
| Cn1c(=O)c(NCCO)c2c3c(cccc31)C(=O)c1ccccc1-2 | -6.61% (inactive) |
| C=CC1=C(C(=O)O)N2C(=O)[C@@H](NC(=O)/C(=N/OCC(=O)O)c3csc(N)n3)[C@H]2SC1 | -13.9% (inactive) |
| CN(N=Nc1ccc([N+](=O)[O-])cc1)c1ccccc1 | -18.3% (inactive) |
| CC1=NN(c2cccc(C(=O)O)c2)C(=O)/C1=C\C=C\c1ccco1 | -5.55% (inactive) |
| CCN(Cc1ccccc1)C(=O)c1cccc(S(=O)(=O)N2CCN(Cc3ccccc3)CC2)c1 | 1.39% (inactive) |
| O=C1CN=C(Nc2ccccc2Cl)N1Cc1ccc2c(c1)OCO2 | -6.04% (inactive) |
| COc1ccc(NS(=O)(=O)c2ccc(C)c(C(=O)N(C)Cc3ccc(OC)cc3OC)c2)cc1 | -7.58% (inactive) |
| CN1CCN(C(=S)c2ccc(N(C)C)cc2)CC1 | 6.8% (inactive) |
| O=C(O)c1ccc2c(c1)[C@@H]1C=CC[C@@H]1[C@H](c1ccccn1)N2 | -31.8% (inactive) |
| COc1ccc(N(C(=O)c2ccc(Cl)cc2)C2=CC3CCC(C2)N3C)cc1 (stereo not drawn) | -1.73% (inactive) |
| CCCc1cc(=O)oc2cc(C)cc(OCC(=O)O)c12 | -7.49% (inactive) |
| Oc1ccc(-c2nc3ccccn3c2NCc2ccco2)cc1 | -4.28% (inactive) |

| SMILES | activity change, negative = cytotoxicity |
| --- | --- |
| CCCc1nnc(NC(=O)CCC(=O)NCc2ccc(OC)cc2)s1 | -1.54% (inactive) |
| O=C(O)c1ccc2c(c1)C(=O)/C(=C\c1ccco1)C2=O | 3.44% (inactive) |
| O=c1cc(-c2ccc(O)c(O)c2)oc2cc(O[C@@H]3O[C@H](CO)[C@@H](O)[C@H](O)[C@H]3O)cc(O)c12 | -8.55% (inactive) |
| O=S(=O)(O)c1cc(O)c2cc(Nc3ccccc3)ccc2c1 | -1.35% (inactive) |
| CC(=O)O[C@@H]1[C@@H](OC(C)=O)[C@H](n2ccc3cc([N+](=O)[O-])ccc32)OC[C@@H]1OC(C)=O | -3.68% (inactive) |
| O=C(NCCCN1CCCC1=O)c1ccc2c(c1)ncn2C1CCCCC1 | -5.77% (inactive) |
| Cc1oc2cc(O)ccc2c(=O)c1-c1nncn1-c1ccccc1 | 3.87% (inactive) |
| COc1ccc(NC(=O)Cc2nnc(SCC(=O)Nc3nccs3)n2C)cc1 | 5.46% (inactive) |
| Cc1ccc(C)c(OCC(=O)N(Cc2nnc(-c3ccccc3Cl)o2)C2CC2)c1 | -0.736% (inactive) |
| Cc1c(NC(=O)CCC2CCCCC2)cc(C(=O)N2CCOCC2)cc1[N+](=O)[O-] | 0.409% (inactive) |
| CSc1nc(SC(C)C(=O)O)c2c3c(sc2n1)COC(C)(C)C3 (stereo not drawn) | -9.35% (inactive) |
| O=C(CN(Cc1ccccc1F)C(=O)c1csnn1)NCc1ccc2c(c1)OCO2 | -9.28% (inactive) |
| O=C(O)C(c1ccccc1)N1C(=O)/C(=C\c2ccc(-c3cccc(Cl)c3)o2)SC1=S (stereo not drawn) | -2.5% (inactive) |
| C=CCNC(=O)c1cn(CC)c2cc(N3CCN(C(=O)c4ccco4)CC3)c(F)cc2c1=O | 6.14% (inactive) |
| CC(C(=O)O)N1C(=O)/C(=C/C=C/c2ccco2)SC1=S (stereo not drawn) | -13.5% (inactive) |
| Nc1nc(C(F)(F)F)cc(=O)[nH]1 | -5.29% (inactive) |
| Cc1cccc(-c2nsc(SCC(=O)Nc3nccs3)n2)c1 | -0.205% (inactive) |
| Nc1cccc2cc(S(=O)(=O)O)ccc12 | 5.33% (inactive) |
| COc1cc(CN2CC(=O)N(c3cc(Cl)ccc3C)C2=S)cc(OC)c1OC | -7.61% (inactive) |
| O=C(Cn1ncc(N2CCCC2)c(Cl)c1=O)c1ccc(Cl)cc1 | 7.35% (inactive) |
| COc1ccc(CC(=O)O/N=C(\N)c2ccc(OC)cc2)cc1 | -11.5% (inactive) |

| SMILES | activity change, negative = cytotoxicity |
| --- | --- |
| O=C1c2cccc3c(O)ccc(c23)C(=O)N1c1ccc(Cl)cc1 | -8.83% (inactive) |
| CCOCCCn1c(SCC(=O)NC(C)(C)C)nc2ccccc2c1=O | -18.7% (inactive) |
| COc1ccc(/C=N/NC(=O)c2ccc3nc[nH]c3c2)c(OC)c1 | 3.07% (inactive) |
| Cc1cc2nc3c(=O)n(C4CCCCC4)c(=O)[nH]c3nc2cc1N | 4.62% (inactive) |
| CCOC(=O)CN1NC2(CCCCCC2)NC1=S | -1.79% (inactive) |
| COc1ccc(S(=O)(=O)N2CCC(C(=O)N3CCCCC3)CC2)cc1 | -17.6% (inactive) |
| CC[C@H](C)[C@H](NC(N)=O)C(=O)Nc1ccc(NC(C)=O)cc1 | 6.72% (inactive) |
| CCOc1ccccc1N1CCN(C(=O)c2ccc3nc(N)sc3c2)CC1 | -19.1% (inactive) |
| Nc1ccc(-c2c3ccc(=O)cc-3oc3cc(O)ccc23)cc1C(=O)O | -1.65% (inactive) |
| O=C(O)c1[nH]c2ccccc2c1C(c1cc(Cl)cc([N+](=O)[O-])c1O)c1c(C(=O)O)[nH]c2ccccc12 | -6.4% (inactive) |
| CC(=O)OCCCn1c(C)[n+](C)c2cc(Cl)c(Cl)cc21 | -14.3% (inactive) |
| CN1CCN(CCCNC(=O)c2cc3c(-c4ccc(Cl)cc4)nn(C)c3s2)CC1 | -18.2% (inactive) |
| CC(C)c1ccc(NC(=O)Cn2c(=O)oc3cccnc32)cc1 | -7.38% (inactive) |
| Nc1ccc2nc3c(=O)[nH]c(=S)[nH]c3nc2c1 | -3.49% (inactive) |
| COc1ccc(Br)cc1CNC(=O)CCCc1cn(C)c2ccccc12 | -12.1% (inactive) |
| COc1ccccc1CNC(=O)C(=O)NCC1CCCN1S(=O)(=O)c1cccs1 (stereo not drawn) | -4.86% (inactive) |
| Cc1cc2nc(SCCN3CCOCC3)[nH]c2cc1C | -23.1% (inactive) |
| COc1cc2c(cc1OC)CN(C(=O)c1ccc(S(=O)(=O)N3CCCC3)cc1)CC2 | 1.87% (inactive) |
| CN(c1ccccc1)S(=O)(=O)c1cccc(NS(=O)(=O)c2cccc(C(=O)O)c2)c1 | 3.74% (inactive) |
| CCN(C(=O)COC(=O)CNS(=O)(=O)c1ccc(SC)c([N+](=O)[O-])c1)C1CCCCC1 | -5.61% (inactive) |
| O=C(Nc1ccc2c(c1)OCO2)N1CCCc2ccccc21 | -15.9% (inactive) |

| SMILES | activity change, negative = cytotoxicity |
| --- | --- |
| COc1cccc(OC)c1C(=O)Nc1cc(C)on1 | 0.727% (inactive) |
| Cc1cc(C)n(CC(=O)NNC(=O)CC(C)c2ccccc2)n1 (stereo not drawn) | -9.44% (inactive) |
| Nc1cccc2c(O)cc(S(=O)(=O)O)cc12 | -1.83% (inactive) |
| O=C(OCc1ccccc1)N1C=CC2CC1c1c(Cl)cccc12 (stereo not drawn) | -8.44% (inactive) |
| CC(C)(C)OC(=O)C[C@@H]1C/C=C\C[C@H](CC(=O)N(CCO)Cc2ccccc2)C(=O)N[C@@H](c2ccccc2)COC1=O | -9.09% (inactive) |
| Cc1ccc(NC(=O)CN2C(=O)N/C(=C/c3cc(C)n(-c4ccc(C(=O)O)cc4)c3C)C2=O)cc1 | -5.94% (inactive) |
| CN1C(=O)NC(c2ccccc2[N+](=O)[O-])C2=C1CCCC2=O (stereo not drawn) | -9.55% (inactive) |
| CCc1noc(C)c1C(=O)N1CCCC(N2CCN(c3ccc(F)cc3)CC2)C1 (stereo not drawn) | -1.12% (inactive) |
| CC(/C=C1\SC(=S)N(CCCC(=O)Nc2ccc(C(=O)O)cc2)C1=O)=C\c1ccccc1 | 3.31% (inactive) |
| Cc1c(C)n(CCC(=O)O)c2ccccc12 | -6.21% (inactive) |
| CCOC(=O)c1sc(NC(=O)CSC(=S)N2CCN(C)CC2)nc1C | -7.44% (inactive) |
| Nc1ccc2ccc3cccc[n+]3c2c1 | -15.1% (inactive) |
| O=c1[nH]nc(CSCc2ccccc2Cl)[nH]1 | -3.66% (inactive) |
| CC(C)=C[C@@H]1C[C@H](C)[C@H]2CC[C@H](C)c3c(O[C@@H]4O[C@@H](C)[C@@H](O)[C@@H](O)[C@@H]4O)c(O)c(C)c1c32 | -5.47% (inactive) |
| NC(=O)c1ccc(NC(=O)C2COc3ccccc3O2)cc1 (stereo not drawn) | -1.55% (inactive) |
| Cc1ccc(NC(=O)CN(C)C(=O)c2nn(C)c(=O)c3ccccc23)cc1 | -13.7% (inactive) |
| CCN(CC)C(=O)c1ccc2c(c1)C1C=CCC1C(C(=O)O)N2 (stereo not drawn) | -7.76% (inactive) |
| O=C(NCc1cccnc1)C(=O)C1C(=O)Nc2ccccc21 (stereo not drawn) | -6.53% (inactive) |
| COc1ccc(OC)c(NC(=O)c2nnn(Cc3ccc(Br)cc3F)c2N)c1 | -9.89% (inactive) |
| C=CCOC(=O)C1=C[C@H](c2csc3ccccc23)C[C@H](OCc2ccc(CO)cc2)O1 | -9.53% (inactive) |
